Square brackets hold non-standard residues; d marks the D form. Peptide text beside a SMILES is read from it. * marks the point of attachment. Trt = c1ccc(C(c2ccccc2)(c2ccccc2)*)cc1; Boc = CC(C)(C)OC(=O)*; OBn = c1ccc(CO*)cc1; OAll = C=CCO*
Assays:
cucumber leaves = test: Plant growth promotion, width of cucumber leaf; format: in vivo; conditions: non-treated = 100.0 (92.1 mm), unit of the source corrected
Method: The active ingredients (Compounds 5 to 8, 14, and 15) were drenched to the leaves of a plant (pepper, potato, tomato, tobacco, cucumber, and Chinese cabbage), and then, after 7 days, the plant lengths were measured. Since then, the plant disease pathogen was inoculated, and then, after 3 to 5 days, the sizes of the plant leaves were measured and compared with the control group to obtain the relative growth degrees.

[1] = tested on: tobacco bacterial rot (Pectobacterium carotovorum); test: Suppression of tobacco bacterial rot; format: in vivo, Pectobacterium carotovorum SCC1
Outline: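 Test compounds at 1, 10 and 100 ppm (from 20% methanol stock) were applied to tobacco leaves; 7 days later plants were sprayed with Pectobacterium carotovorum SCC1 at 10^8 cfu/mL and kept 3 days at 30° C. Lesion area scored visually as 0–100%.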

[2] = tested on: plant bacterial rot (Pectobacterium carotovorum SCC1); test: Suppression of bacterial rot on pepper leaves (paper disc on cut leaves); format: in vivo; conditions: sprayed on the pepper leaves, 1 or 10 ppm
Method: (§1) The peppers were raised in the same method as Example 3, and then, the test compounds were dissolved in 20% methanol to make a stock solution, and a stock was diluted to the concentrations of 0.1, 1.0, and 10.0 ppm. The test solutions were sprayed on the leaves or drench-treated on the leaves. After 7 days, the pathogen of plant bacterial rot (Pectobacterium carotovorum SCC1) was cultured in a TSA medium for 27 hours, and then, wetted on an 8 mm diameter paper disc in the concentration of 10^8 cfu/mL. The paper disc was located in the center of the leaves that were cut roundly, and then, after about 7 days, the lesion area was measured. In the case of phytophthora, the potato agar medium cultured with the phytophthora (Phytophthora capsici) was cut in the internal diameter size of 5 mm with a cork borer, and then inoculated to the leaves. After 7 days, the lesion area was observed. In the case of a bacterial rot, when Compounds 6, 89, 93, and 95 were sprayed on the pepper leaves, the bacterial rot was not found in the concentration of 1 or 10 ppm as compared with the non-treated group. […] The Suppression of lesion formation on the leaves when these compounds were drench-treated to the roots can be explained as it was resulted from that systemic disease resistance was induced in the whole plant. These test results are illustrated in the photographs of FIGS. 5 to 9.

[3] = tested on: anthracnose germ (Colletotrichum orbiculare); test: Suppression of anthracnose on cucumber leaves by seed treatment; format: in vivo; conditions: seeds treated at 100 ppm for 2 hours, spores sprayed after 3 weeks, read after 7 days, FIG. 4
Method: Compound 61 or Compound 74 were deposited on the seeds of cucumbers in the concentration of 100 ppm for 2 hours, and after 3 weeks, the spores of anthracnose germ (Colletotrichum orbiculare) were sprayed in the concentration of 10^5 spore/mL thereto, and then, after 7 days, the disease outbreak was investigated. The results thus obtained are illustrated in the photographs of FIG. 4.

[4] = tested on: GUS gene induced by PR-1α disease-resistance promoter; test: PR-1a GUS activation on tobacco leaves (MUG fluorescence); format: in vivo, tobacco (Xanth-nc); conditions: tobacco leaf injection, after three days
Method: After the tobacco (Xanth-nc) bound with GUS gene induced by PR-1α disease-resistance promoter was grown for 3 weeks, 100 μL of the diluted solution of Compound 74 was injected to second leaves with a syringe. After three days, the surrounding leaves were collected in an internal diameter size of 5 mm with a cork borer, the samples thus obtained were added to a 1.5 mL of an eppendorf tube, and 20 μL of GUS extraction buffer solution was further added, ground, and then centrifuged at 8000 G for 3 minutes to obtain supernatant. The same amount of 2 mM MUG (4-methyl umbellifryl-B-glucuronide) solution was added, reacted at 37° C. for 1 hour, and then 960 μL of stop buffer solution (0.2 M, Na2CO3 solution) was added to be 1 mL. Since then, the fluorescence was measured with a TKO 100 fluorometer (Hoefoer Scientific Instruments, USA). At this time, the fluorescence amount was calibrated using a MU (4-methyl umbellyferon) as a standard reagent, and the GUS activity was calculated using MU-mM/sample−10 mg/time. The results thus obtained are listed in the following Table 2 and illustrated in FIG. 2.

[5] = tested on: PR1, PR4, PR10, beta-1,3-glucanase, chitinase and peroxidase genes; test: Expression of defense genes in pepper plant (RT-PCR) after compound treatment and pathogen inoculation; format: in vivo; conditions: pepper seedling, compound treated and then P. carotovora or P. capsici treated, FIG. 1
From the text: In order to testify the disease resistance expression in the case of treating the dipeptide derivative of the present invention to the seeding of pepper, PR-1, beta-1,3-glucanase, chitinase, PR4, peroxidase, and PR10 primer, and the seedling of pepper were used. The seedling of pepper was raised in a greenhouse for 4 weeks, Compounds were sprayed thereto in various concentrations, and then, after three or one week, phytophthora (Phytophthora capcisi) and the pathogen of a bacterial rot (Pectobacterium carotovorum) were respectively inoculated.
Since then, after 12, 24, and 48 hours, the respective pepper leaves were collected in an amount of 1 g, and then, stored at an ultralow temperature-room at […]. The stored plant leaves were pulverized along with liquid nitrogen, and then, […] was extracted by using a RNA extraction kit (Easy-Spin™IIP Total RNA Extraction Kit, Intron Biotechnology, Korea) and Ex Taq polymerase by Kishimoto et al. (2005) (Takara Biomedicals, Otsu, Japan). For amplification, 0.1 μg of cDNA, 10 pMol of each of forward and reverse primers, 250 nM of dNTPs, and 0.5 U of Ex Taq polymerase were added to 20 μl, of a buffer solution. PCR was performed at 94C and 58C in a thermal cycler (PTC-100, USA), and the products by PCR were analyzed under the condition of 1% agarose gel (in 0.5×TAE buffer) (80 V, 60 min). All the RT-PCR tests were repeated twice. […]

[6] = tested on: pepper phytophthora blight (Phytopthora capsici); test: Suppression of pepper phytophthora blight on leaves; format: in vivo; conditions: for Lesion outbreak rate: pepper leaves; for Effect on suppressing the outbreak of pepper phytophthora blight or bacterial rot as compared with the non-treated control group: directly sprayed to the leaves; for Lesion formation, pepper phytophthora test: drench-treated, 1.0 or 10.0 ppm
Method: as §1

Phytophthora capsici = test: Suppression of phytophthora blight in pepper roots and leaves after drench inoculation; format: in vivo; conditions: sprayed on leaves, roots drench-inoculated after 1 week, observed 7 days, FIG. 10
From the text: The peppers were raised in the same method as Example 3, Compound 85 was sprayed on the leaves, and then after 1 week, the Phytophthora capsici swarm suspension was drench-inoculated. While observing for 7 days, the lesion formation on the leaves and roots were investigated. […] The test results of Compound 85 on suppressing the outbreak of phytophthora blight are illustrated in FIG. 10.

pepper plant = test: Overcoming cold weather-damage on pepper plant (2° C. for 1 day); format: in vivo; conditions: then room temperature 3 days
Method: In order to confirm the immunity-activating effect of the compounds of the present invention, the plants were exposed at the temperature so that they could be artificially damaged from cold weather, and the growth and development were observed. After growing the plants for 6 weeks, the compounds were drenched or sprayed on the leaves and the plants were raised for 1 week. After the plants were exposed under a 2° C. growth room for 1 day, they were raised at room temperature for 3 days. The degrees of the growth and development of the plants were observed and the degrees of the damage from cold weather in the plant were determined. […] The test results are illustrated in the photographs of FIGS. 11 and 12.

## COC(=O)CNC(=O)[C@@H](N)C(C)C [Compound 6] (H-Val-Gly-OMe)
Cucumber leaves; 1.0 ppm
  Width of cucumber leaf (relative value to the non-treated group): 114%
Cucumber leaves; 10 ppm
  Width of cucumber leaf (relative value to the non-treated group): 124%
Cucumber leaves; 100 ppm
  Width of cucumber leaf (relative value to the non-treated group): 123%
[1]; Table 3, tobacco, 1 ppm
  Lesion outbreak rate: 11%
[1]; Table 3, tobacco, 10 ppm
  Lesion outbreak rate: 2.1%
[1]; Table 3, tobacco, 100 ppm
  Lesion outbreak rate: 3.5%
[2]
  Bacterial rot on pepper leaves as compared with the non-treated group: not found

## COC(=O)[C@H](C)NC(=O)CNC(=O)OC(C)(C)C [Compound 14] (Boc-Gly-Ala-OMe)
Cucumber leaves; 1.0 ppm
  Width of cucumber leaf (relative value to the non-treated group): 104%
Cucumber leaves; 10 ppm
  Width of cucumber leaf (relative value to the non-treated group): 103%
Cucumber leaves; 100 ppm
  Width of cucumber leaf (relative value to the non-treated group): 113%
[1]; Table 6, tobacco, 1 ppm
  Lesion outbreak rate: 50%
[1]; Table 6, tobacco, 10 ppm
  Lesion outbreak rate: 78%
[1]; Table 6, tobacco, 100 ppm
  Lesion outbreak rate: 35%

## COC(=O)[C@H](C)NC(=O)[C@H](Cc1ccc(O)cc1)NC(=O)OC(C)(C)C [Compound 15]
Cucumber leaves; 1.0 ppm
  Width of cucumber leaf (relative value to the non-treated group): 98.9%
Cucumber leaves; 10 ppm
  Width of cucumber leaf (relative value to the non-treated group): 113%
Cucumber leaves; 100 ppm
  Width of cucumber leaf (relative value to the non-treated group): 112%
[1]; Table 6, tobacco, 1 ppm
  Lesion outbreak rate: 75%
[1]; Table 6, tobacco, 10 ppm
  Lesion outbreak rate: 63%
[1]; Table 6, tobacco, 100 ppm
  Lesion outbreak rate: 50%

## COC(=O)[C@@H]1CCCN1C(=O)[C@H](CSC(c1ccccc1)(c1ccccc1)c1ccccc1)NC(=O)OC(C)(C)C [Compound 61] (Boc-Cys(Trt)-Pro-OMe)
[1]; Table 5, tobacco, 10 ppm
  Lesion outbreak rate: 20%
[1]; Table 5, tobacco, 100 ppm
  Lesion outbreak rate: 16%
[3]
  Anthracnose on the leaves of cucumber as compared with the non-treated group: hardly found

## COC(=O)[C@H]1CCCN1C(=O)[C@H](CSC(c1ccccc1)(c1ccccc1)c1ccccc1)NC(=O)OC(C)(C)C [Compound 74] (Boc-Cys(Trt)-[dP]-OMe)
[1]; Table 6, tobacco, 1 ppm
  Lesion outbreak rate: 25%
[1]; Table 6, tobacco, 10 ppm
  Lesion outbreak rate: 34%
[1]; Table 6, tobacco, 100 ppm
  Lesion outbreak rate: 22%
[4]; 0.1 ppm
  PR1a GUS expression: 7,800 nM MU/10 mg FW/1 hr
[4]; 1.0 ppm
  PR1a GUS expression: 15,000 nM MU/10 mg FW/1 hr
[4]; 10.0 ppm
  PR1a GUS expression: 420,000 nM MU/10 mg FW/1 hr
[4]; 100.0 ppm
  PR1a GUS expression: 860,000 nM MU/10 mg FW/1 hr
[3]
  Anthracnose on the leaves of cucumber as compared with the non-treated group: hardly found

## CCOC(=O)C(C)NC(=O)C(NC(=O)OC(C)(C)C)C(C)CC (centres unmarked) [Compound 80]
[5]
  Expression of the genes of PR1, PR4, PR10, beta-1,3-glucanase, chitonase and peroxidase: strongly expressed
[6]; 0.1 ppm
  Lesion outbreak rate: 14 area %
[6]; 1.0 ppm
  Lesion outbreak rate: 8.9 area %

## CCC(C)C(NC(=O)OC(C)(C)C)C(=O)N1CCCC1C(=O)OC (stereo not drawn) [Compound 85] (Boc-Ile-Pro-OMe; configuration not given here)
Phytophthora capsici
  Phytophthora blight (lesion formation) on the leaves and roots as compared with the control group: significantly suppressed
[6]; 0.1 ppm
  Lesion outbreak rate: 24 area %
[6]; 1.0 ppm
  Lesion outbreak rate: 15 area %

## COC(=O)[C@H](Cc1ccccc1)NC(=O)[C@@H](N)CC(=O)O [Compound 89] (H-Asp-Phe-OMe)
[2]
  Bacterial rot on pepper leaves as compared with the non-treated group: not found
[5]
  Expression of the genes of PR1, PR4, PR10, beta-1,3-glucanase, chitonase and peroxidase: strongly expressed
[6]
  Effect on suppressing the outbreak of pepper phytophthora blight or bacterial rot as compared with the non-treated control group: excellent
  Lesion formation, pepper phytophthora test: no the lesion formations
[6]; in vivo
  Effect on suppression of the outbreak of pepper phytophthora blight as compared with the control drug BTH: excellent effect
[6]; 0.1 ppm
  Lesion outbreak rate: 9.3 area %
[6]; 1.0 ppm
  Lesion outbreak rate: 2.3 area %

## COC(=O)C[C@H](NC(=O)OC(C)(C)C)C(=O)N[C@@H](Cc1ccccc1)C(=O)OC [Compound 90] (Boc-Asp(OMe)-Phe-OMe)
Pepper plant; sprayed on the leaves
  Cold weather-damage: no damages observed
[6]; 0.1 ppm
  Lesion outbreak rate: 24 area %
[6]; 1.0 ppm
  Lesion outbreak rate: 7.2 area %

## COC(=O)C[C@H](N)C(=O)N[C@@H](Cc1ccccc1)C(=O)OC [Compound 91] (H-Asp(OMe)-Phe-OMe)
Pepper plant; sprayed on the leaves
  Cold weather-damage: no damages observed
[6]
  Effect on suppressing the outbreak of pepper phytophthora blight or bacterial rot as compared with the non-treated control group: excellent
[6]; 0.1 ppm
  Lesion outbreak rate: 14 area %
[6]; 1.0 ppm
  Lesion outbreak rate: 24 area %

## C=CCOC(=O)C[C@H](N)C(=O)N[C@@H](Cc1ccccc1)C(=O)OC [Compound 93] (H-Asp(OAll)-Phe-OMe)
Pepper plant; sprayed on the leaves
  Cold weather-damage: no damages observed
[2]
  Bacterial rot on pepper leaves as compared with the non-treated group: not found
[6]
  Effect on suppressing the outbreak of pepper phytophthora blight or bacterial rot as compared with the non-treated control group: excellent
[6]; 0.1 ppm
  Lesion outbreak rate: 35 area %
[6]; 1.0 ppm
  Lesion outbreak rate: 23 area %

## COC(=O)[C@H](Cc1ccccc1)NC(=O)[C@@H](N)CC(=O)OCc1ccccc1 [Compound 95] (H-Asp(OBn)-Phe-OMe)
Pepper plant; drench-treated
  Cold weather-damage: no cold weather-damages
Pepper plant; sprayed on the leaves
  Cold weather-damage: no damages observed
[2]
  Bacterial rot on pepper leaves as compared with the non-treated group: not found
[6]; drench-treated to the roots
  Outbreak of the phytophthora blight on the leaves: significantly decreased
[6]
  Lesion formation, pepper phytophthora test: no the lesion formations
[6]; 0.1 ppm
  Lesion outbreak rate: 9.2 area %
[6]; 1.0 ppm
  Lesion outbreak rate: 3.8 area %
